Like-named read-outs stand apart in the source and are kept apart here.
How the values were obtained:
Tetrabenazine Catalepsy = test: Inhibition of Tetrabenazine Catalepsy (rats); format: in vivo, male Han. Wistar (LATI) rats; details: for Antitetrabenazine activity (%): rats, 30 mg/kg intraperitoneally, one hour before tetrabenazine
Description: (§1) For the pharmacological tests CFLP (LATI) mice of both sexes, weighing 18 to 22 g each and male Han. Wistar (LATI) rats weighing 160 to 180 g each were used. The test materials were administered orally, in 30 mg/kg doses, in the form of a suspension containing 5% of Tween 80, one hour before the tests.
3. Inhibition of Tetrabenazine Catalepsy
The test was carried out on male rats each weighing 160 to 180 g. The test materials were administered intraperitoneally, in a dose of 30 mg/kg, one hour before tetrabenazine administration.

Hyperthermia = test: Antipyretic Activity (rats), Brewer's yeast hyperthermia; format: in vivo, male Han. Wistar (LATI) rats; details: 30 mg/kg orally, 4 h after yeast, % of animals at least one centigrade lower than control
Description: as §1
5. Antipyretic Activity (rats)
Hyperthermia is induced in rats with Brewer's yeast suspension (0.5% of Brewer's yeast, 1% of arabic gum in a volume of 0.3 ml, s.c.). The animals are treated with the test materials 4 hours later, and the tracheal temperature of the animals is registered with an ELAB thermometer (typ. TE-3) for 4 hours.

Metrazole Spasm = Metrazole Spasm (mice), antispasm activity; format: in vivo, CFLP (LATI) mice; details: for Antispasm activity metrazole b: b) tonic extensoric spasm, 30 mg/kg orally
Description: as §1

writhing syndrom = test: Analgesic Activity (mice), acetic acid writhing syndrom; format: in vivo, CFLP (LATI) mice; details: for ED50: Mus musculus, po, read-out: Analgesic activity, ED50
Description: as §1, with “tests. 4. Analgesic Activity (mice) One hour after pretreatment, mice were administered 0.4 ml of a 0.6% acetic acid solution intraperitoneally, as a pain stimulus. The frequency of writhing syndrom is registered for 30 minutes.” for “tests.”

[1] = mice, pentylenetetrazole 125 mg/kg s.c.

Compound | Antitetrabenazine activity (%) (Tetrabenazine Catalepsy) | antidepressive effect (in words) (Tetrabenazine Catalepsy; test not given) | Antipyretic activity (%) (Hyperthermia) | Antispasm activity metrazole b (Metrazole Spasm; [1]) | anticonvulsive effect (in words) (Metrazole Spasm; test not given) | ED50 (writhing syndrom; value marked ^x = ED50, mice, orally, 0.6% acetic acid i.p. writhing) [mg/kg] | analgesic activity (in words) (writhing syndrom; acetic acid writhing, mice) | analgesic activity relative to reference compound (Na-salicylate) (writhing syndrom; acetic acid writhing, mice) | ED50 (Metrazole Spasm; Mus musculus, po; value marked ^x = ED50; b) tonic extensoric spasm, mice, orally, pentylenetetrazole 125 mg/kg s.c.) [mg/kg] | Analgesic activity (%) (writhing syndrom; mice, 30 mg/kg orally, 0.4 ml 0.6% acetic acid i.p., 30 minutes, vs control) | influence on writhing syndrom induced with acetic acid (in words) (writhing syndrom; 30 mg/kg dose, mice) | ED50 (writhing syndrom) [mg/kg]
COc1cc2c(cc1OC)C(C(CO)CO)N(C)CC2.Cl (centres unmarked) [Compound A, 1-[bis(hydroxymethyl)-methyl]-2-methyl-6,7-dimethoxy-1,2,3,4-tetrahydroisoquinoline hydrochloride] | 20.0 | remarkable anticonvulsive and antidepressive effects | 20.0 | 20.0 | remarkable anticonvulsive and antidepressive effects | 28 | valuable analgesic activity | four times more active than the reference compound | – | – | – | –
CCOc1cc2c(cc1OCC)C(C(CO)CO)N(CC(O)CC)CC2.Cl (stereo not drawn) [Compound B, 1-[bis-(Hydroxymethyl)-methyl]-2-(β-hydroxybutyl)6,7-diethoxy-1,2,3,4-tetrahydroisoquinoline hydrochloride] | 20.0 | – | 20.0 | – | – | – | somewhat lower analgesic activity than the above 2-methyl-compound | – | 20 | 40.0 | – | –
O=C(O)c1ccccc1O [Na--salicylate, Na-salicylate, reference compound] | – | – | 40.0 | 20.0 | – | – | – | – | – | – | practically not influenced | 113
